From patent US9073916B2, “Prodrug forms of kinase inhibitors and their use in therapy” (AUCKLAND UNISERVICES LIMITED, priority 2009, dated 2015)
Like-named read-outs stand apart in the source and are kept apart here. Values belong to the compound of their own block, whether it stands above or below them.

Key:
[1] = test system: SKBR3 cells; experiment: Cellular growth inhibition (sulforhodamine B); type: cell-based, Human; details: Table 3; for IC50: Homo sapiens, SK-BR-3
[2] = test system: SW620 cells; experiment: Cellular growth inhibition (sulforhodamine B); type: cell-based, Human; details: Table 3; for IC50: Homo sapiens, SW-620
[3] = test system: A431 cells; experiment: Cellular growth inhibition (sulforhodamine B); details: for IC50: Homo sapiens
[4] = molecular target: erbB2 (Homo sapiens, UniProt P04626); experiment: Isolated enzyme inhibition (Invitrogen Z′-LYTE kinase assay); type: biochemical; details: 10 μM ATP, duplicate
Procedure: (§1) The compounds of Table 1 were tested for their ability to inhibit erbB1, erbB1^T790M, erbB2 and erbB4 in an isolated enzyme assay. This assay utilises synthetic FRET-capable peptide substrates. Phosphorylation of these substrates protects them from cleavage by a development reagent, leaving their FRET-capabilities intact. […] As a further consideration, for compounds capable of irreversible inhibition of an enzyme, the IC50 reflects both reversible and irreversible binding to the enzyme.

[5] = molecular target: erbB4 (Homo sapiens, UniProt Q15303); experiment: as above; type: biochemical; details: 10 μM ATP, duplicate
Procedure: as §1

[6] = Pulse radiolysis (E(1) and fragmentation rate); type: physicochemical; details: for kfrag. (fragmentation rate constant upon 1-electron reduction): benzyl-type radical formation; for E (1)/V (one-electron reduction potential): determined against methylviologen
Procedure: (§2) Pulse radiolysis was used to monitor the 1-electron reduction and stability of the compounds in real time. A linear accelerator delivering short pulses of high energy electrons (2-3 Gy in 200 ns of 4 MeV) equipped with a fast spectophotometric detection system was used. (Anderson et al, J. Phys. Chem. A, 101, 9704-9709, 1997). […] The rate of fragmentation was determined by analysing kinetic transients at wavelengths corresponding to the formation of the benzyl-type radical of the trigger moiety. (Bays et al, J. Am. Chem. Soc., 105, 320-324, 1983; Anderson et al, J. Phys. Chem. A, 101, 9704-9709, 1997).
The pulse radiolysis method, for example, measures the equilibrium constant between the radical anions of the prodrugs, formed upon their 1-electron reduction, and reference standards such as viologen and quinone compounds, from which data the E(1) values of the compounds can be calculated. (Meisel and Czapski. J. Phys. Chem., 1975, 79, 1503-1509.) The E(1) values of prodrugs 17-22, 140-145 were measured by the pulse radiolysis method and determined to range between −0.493V and −0.388V (Table 4).
The rate constants for fragmentation, kfrag, of the 1-electron reduced prodrugs can be measured using pulse radiolysis to observe the time-resolved formation of the absorption spectrum of the benzyl-type radical produced upon fragmentation of the radical anion. (Anderson et al, J. Phys. Chem. A, 1997, 101, 9704-9709.) The kfrag values of prodrugs 19, 20, 140, 141 and 143-145 were measured by pulse radiolysis and are presented in Table 4.
as §2, with “one-electron” for “1-electron”, “prodrug 42” for “the compounds”, “used.” for “used. (Anderson et al, J. Phys. Chem. A, 101, 9704-9709, 1997).”, “1997.)” for “1997).”

[7] = molecular target: erbB1 (Homo sapiens, UniProt P00533); experiment: Inhibition of erbB1 autophosphorylation in EGF-stimulated intact A431 cells (Western blot)
[8] = test system: H1975 cells; experiment: Cellular growth inhibition (sulforhodamine B); type: cell-based, Human; details: for IC50: Homo sapiens, NCI-H1975
[9] = test system: SKOV3 cells; experiment: Cellular growth inhibition (sulforhodamine B); type: cell-based, Human; details: Table 9; for IC50: Homo sapiens, SK-OV-3
[10] = test system: H1975 xenografts; experiment: In vivo efficacy in H1975 xenografts; design: species or system mice; details: H1975 xenografts, q3dx4 at respective MTD, IP
Procedure: Specific pathogen-free homozygous female NIH-III nude mice (Charles River Laboratories, Wilmington, Mass.) were inoculated subcutaneously with a single cell suspension of H1975 cells (5×10^6 cells/100 μL; right flank). When H1975 tumour xenografts were established (typically 8-12 days) mice were randomized to treatment groups. All compounds were prepared in lactate buffer (pH4). Mice were dosed by intraperitoneal injection (0.01-0.03 ml/g) using the stated schedules and dose levels. For growth delay experiments mice were randomized to treatment and tumor volume [π(length×width^2)/6] and body weight were measured daily following treatment. […] Differences in RTV^4 were tested for statistical difference by Mann Whitney U test using SigmaStat v3.5.

[11] = physchem
[12] = Chemical stability by HPLC; details: HPLC after 24 h at 37° C.
[13] = test system: HT29 cells; experiment: Cellular growth inhibition (sulforhodamine B); type: cell-based, Human; details: Table 7; for IC50: Homo sapiens, HT-29
[14] = Steady state radiolytic reduction by the CO2.− radical with HPLC-MS; type: physicochemical; details: for Detection of MNA (methyl nitroaromatic) / release of effector following 1-electron reduction: HPLC-MS; for % Loss of prodrug: HPLC-MS at 0.95 reducing equivalents; for release of effector following 1-electron reduction: steady state radiolysis
[15] = 24 hour exposure entirely oxic, read-out: Cellular Growth Inhibition IC50 SKBR3 Oxic
[16] = first 4 hours anoxic, read-out: Cellular Growth Inhibition IC50 SKBR3 Anoxic
[17] = 24 hour exposure entirely oxic, read-out: Cellular Growth Inhibition IC50 SW620 Oxic
[18] = first 4 hours anoxic, read-out: Cellular Growth Inhibition IC50 SW620 Anoxic
[19] = A-431, 24 h, read-out: Cellular Growth Inhibition IC50 A431 Oxic
[20] = A-431, read-out: Cellular Growth Inhibition IC50 A431 Anoxic
[21] = Table 9, 24 hour exposure oxic, read-out: Cellular Growth Inhibition IC50 H1975 Oxic
[22] = Table 9, first 4 hours anoxic, read-out: Cellular Growth Inhibition IC50 H1975 Anoxic
[23] = 24 hour exposure oxic, read-out: Cellular Growth Inhibition IC50 SKOV3 Oxic
[24] = first 4 hours anoxic, read-out: Cellular Growth Inhibition IC50 SKOV3 Anoxic
[25] = A-431, 4 h, read-out: Cellular Growth Inhibition IC50 A431 Anoxic
[26] = Table 7, 24 hour exposure oxic, read-out: Cellular Growth Inhibition IC50 H1975 Oxic
[27] = Table 7, initial 4 hours anoxic, read-out: Cellular Growth Inhibition IC50 H1975 Anoxic
[28] = 24 hour exposure oxic, read-out: Cellular Growth Inhibition IC50 HT29 Oxic
[29] = initial 4 hours anoxic, read-out: Cellular Growth Inhibition IC50 HT29 Anoxic

Sequence of erbB1 (P00533 25-1210): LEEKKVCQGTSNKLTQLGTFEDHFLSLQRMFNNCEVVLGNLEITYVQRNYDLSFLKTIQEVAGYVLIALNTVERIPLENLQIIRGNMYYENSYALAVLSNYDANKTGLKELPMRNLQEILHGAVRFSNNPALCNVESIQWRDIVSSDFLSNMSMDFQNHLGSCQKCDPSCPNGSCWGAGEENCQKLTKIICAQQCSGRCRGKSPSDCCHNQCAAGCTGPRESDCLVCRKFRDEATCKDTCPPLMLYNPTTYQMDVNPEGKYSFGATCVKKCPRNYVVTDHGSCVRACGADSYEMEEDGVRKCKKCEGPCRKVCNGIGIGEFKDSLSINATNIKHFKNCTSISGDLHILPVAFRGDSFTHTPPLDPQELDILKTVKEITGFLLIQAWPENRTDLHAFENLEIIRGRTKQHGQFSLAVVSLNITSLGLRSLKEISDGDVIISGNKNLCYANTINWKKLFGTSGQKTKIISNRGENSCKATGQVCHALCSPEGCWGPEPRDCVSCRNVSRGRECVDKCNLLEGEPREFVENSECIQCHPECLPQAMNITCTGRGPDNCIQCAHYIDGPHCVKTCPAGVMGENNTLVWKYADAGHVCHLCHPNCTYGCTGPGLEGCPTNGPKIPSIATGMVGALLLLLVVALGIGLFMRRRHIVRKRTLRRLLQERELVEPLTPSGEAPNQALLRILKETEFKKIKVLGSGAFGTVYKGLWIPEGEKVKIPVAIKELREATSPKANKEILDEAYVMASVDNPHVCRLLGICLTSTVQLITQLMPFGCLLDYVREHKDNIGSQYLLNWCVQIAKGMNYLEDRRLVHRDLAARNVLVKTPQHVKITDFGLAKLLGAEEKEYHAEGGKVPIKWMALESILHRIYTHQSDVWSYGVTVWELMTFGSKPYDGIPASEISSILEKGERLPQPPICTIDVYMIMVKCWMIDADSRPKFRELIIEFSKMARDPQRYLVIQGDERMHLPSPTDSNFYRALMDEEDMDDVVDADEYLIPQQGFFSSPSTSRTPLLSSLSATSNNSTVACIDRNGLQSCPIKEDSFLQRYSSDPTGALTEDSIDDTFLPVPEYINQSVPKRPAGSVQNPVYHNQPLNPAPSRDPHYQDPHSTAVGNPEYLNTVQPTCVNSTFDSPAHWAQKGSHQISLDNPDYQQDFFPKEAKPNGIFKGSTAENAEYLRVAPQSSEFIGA
Sequence of erbB4 (Q15303 26-1308): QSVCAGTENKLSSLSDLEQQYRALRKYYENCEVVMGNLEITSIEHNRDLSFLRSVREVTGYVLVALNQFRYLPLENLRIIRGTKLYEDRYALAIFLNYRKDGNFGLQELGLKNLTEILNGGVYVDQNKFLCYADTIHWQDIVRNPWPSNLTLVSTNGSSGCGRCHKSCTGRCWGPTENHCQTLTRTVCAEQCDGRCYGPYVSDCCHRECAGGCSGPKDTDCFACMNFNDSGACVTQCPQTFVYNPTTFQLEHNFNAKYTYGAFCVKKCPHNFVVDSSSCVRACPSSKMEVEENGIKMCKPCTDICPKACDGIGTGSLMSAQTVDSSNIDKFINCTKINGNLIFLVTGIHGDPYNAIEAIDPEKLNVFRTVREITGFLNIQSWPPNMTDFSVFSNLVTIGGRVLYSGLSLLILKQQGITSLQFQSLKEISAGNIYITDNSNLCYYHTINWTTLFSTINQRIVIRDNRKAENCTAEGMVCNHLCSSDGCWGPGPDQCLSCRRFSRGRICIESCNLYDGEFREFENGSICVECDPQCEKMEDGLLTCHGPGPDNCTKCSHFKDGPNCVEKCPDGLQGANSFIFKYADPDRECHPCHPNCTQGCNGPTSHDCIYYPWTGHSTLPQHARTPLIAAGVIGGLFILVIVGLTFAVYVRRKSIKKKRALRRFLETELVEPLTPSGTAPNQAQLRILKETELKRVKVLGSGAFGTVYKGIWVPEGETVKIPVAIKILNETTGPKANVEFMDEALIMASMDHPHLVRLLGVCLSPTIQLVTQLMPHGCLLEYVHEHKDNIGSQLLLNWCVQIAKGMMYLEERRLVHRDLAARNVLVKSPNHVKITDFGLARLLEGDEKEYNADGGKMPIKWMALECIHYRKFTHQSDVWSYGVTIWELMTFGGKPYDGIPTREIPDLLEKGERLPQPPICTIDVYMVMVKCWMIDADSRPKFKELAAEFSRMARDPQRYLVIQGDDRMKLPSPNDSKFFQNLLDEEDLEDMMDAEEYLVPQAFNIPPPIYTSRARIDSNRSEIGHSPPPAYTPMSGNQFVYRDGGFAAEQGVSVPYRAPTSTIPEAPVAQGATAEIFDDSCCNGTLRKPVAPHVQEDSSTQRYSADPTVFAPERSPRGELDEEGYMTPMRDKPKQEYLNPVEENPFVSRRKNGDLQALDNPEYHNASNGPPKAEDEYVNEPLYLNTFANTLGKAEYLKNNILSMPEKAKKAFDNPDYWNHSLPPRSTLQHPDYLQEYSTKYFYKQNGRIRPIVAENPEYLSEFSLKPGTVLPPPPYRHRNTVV
Sequence of erbB2 (P04626 23-1255): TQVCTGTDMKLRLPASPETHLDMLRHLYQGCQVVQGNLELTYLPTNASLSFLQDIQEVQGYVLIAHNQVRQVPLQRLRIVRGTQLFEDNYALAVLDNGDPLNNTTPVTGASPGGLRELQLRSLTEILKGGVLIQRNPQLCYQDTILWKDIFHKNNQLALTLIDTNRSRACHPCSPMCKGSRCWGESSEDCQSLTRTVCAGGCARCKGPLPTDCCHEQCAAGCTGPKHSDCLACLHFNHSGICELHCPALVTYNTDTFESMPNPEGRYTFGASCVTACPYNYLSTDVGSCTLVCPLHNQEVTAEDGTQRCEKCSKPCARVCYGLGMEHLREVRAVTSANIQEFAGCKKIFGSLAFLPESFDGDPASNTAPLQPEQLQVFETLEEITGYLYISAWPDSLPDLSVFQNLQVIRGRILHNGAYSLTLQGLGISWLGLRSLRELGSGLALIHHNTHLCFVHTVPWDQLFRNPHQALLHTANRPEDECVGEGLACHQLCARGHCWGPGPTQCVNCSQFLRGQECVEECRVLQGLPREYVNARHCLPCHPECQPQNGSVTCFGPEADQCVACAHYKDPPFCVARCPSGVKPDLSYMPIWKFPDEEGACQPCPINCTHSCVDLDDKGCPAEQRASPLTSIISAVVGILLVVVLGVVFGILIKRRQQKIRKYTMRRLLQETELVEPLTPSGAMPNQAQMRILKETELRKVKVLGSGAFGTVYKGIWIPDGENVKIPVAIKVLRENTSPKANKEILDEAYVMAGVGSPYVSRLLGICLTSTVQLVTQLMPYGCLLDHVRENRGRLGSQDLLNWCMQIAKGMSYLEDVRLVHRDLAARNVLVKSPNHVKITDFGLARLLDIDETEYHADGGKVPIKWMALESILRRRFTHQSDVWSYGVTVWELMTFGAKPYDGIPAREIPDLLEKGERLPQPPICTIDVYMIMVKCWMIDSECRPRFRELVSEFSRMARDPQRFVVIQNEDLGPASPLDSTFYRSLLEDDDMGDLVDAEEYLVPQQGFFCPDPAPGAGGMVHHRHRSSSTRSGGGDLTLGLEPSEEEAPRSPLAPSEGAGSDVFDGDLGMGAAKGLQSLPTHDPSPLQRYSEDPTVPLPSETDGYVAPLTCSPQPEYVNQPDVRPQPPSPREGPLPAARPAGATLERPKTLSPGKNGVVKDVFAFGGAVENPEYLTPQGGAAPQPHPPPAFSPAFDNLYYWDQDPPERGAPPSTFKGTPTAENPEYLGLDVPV

IC50 [1, 15]: 28 nM | IC50 [1, 16]: 27 nM | IC50 [2, 17]: 2020 nM | IC50 [2, 18]: 2460 nM | melting point: 179 to 181 °C | IC50 [3, 19]: 15 nM | IC50 [3, 20]: 9 nM
SMILES: COc1cc2ncnc(Nc3ccc(F)c(Cl)c3)c2cc1NC(=O)/C=C/CN(C)C [Compound 14, (2E)-N-[4-(3-chloro-4-fluoroanilino)-7-methoxy-6-quinazolinyl]-4-(dimethylamino)-2-butenamide]
SKBR3 HCR [1]: 1.1 fold | SW620 HCR [2]: 0.8 fold | A431 HCR (Hypoxic Cytotoxicity Ratio) ([3]; Table 3): 1.7 fold

IC50 [4]: 74 nM | IC50 [5]: 113 nM | IC50 [1, 15]: 3190 nM | IC50 [1, 16]: 5510 nM | IC50 [2, 17]: 18600 nM | IC50 [2, 18]: 19600 nM | melting point: 180 to 182 °C | IC50 [3, 19]: 1260 nM | IC50 [3, 20]: 1300 nM
SMILES: CN(C)CCCC(=O)Nc1ccc2ncnc(Nc3cccc(Br)c3)c2c1 [Compound 16, N-[4-(3-bromoanilino)-6-quinazolinyl]-4-(dimethylamino)butanamide]
SKBR3 HCR [1]: 0.6 fold | SW620 HCR [2]: 0.9 fold

IC50 [1, 15]: 2470 nM | IC50 [1, 16]: 68 nM | IC50 [2, 17]: 101000 nM | IC50 [2, 18]: 13800 nM | E (1)/V (one-electron reduction potential) [6]: −0.427 V | melting point: 188 °C (dec.) | IC50 [3, 19]: 670 nM | IC50 [3, 20]: 25 nM | IC50 [7]: 1200 nM | Deact. (fold reduction in cellular erbB1 inhibition relative to the parent kinase inhibitor) ([7]; Table 2, A431 cells): 27 fold
SMILES: Cn1cnc([N+](=O)[O-])c1C[N+]1(C/C=C/C(=O)Nc2ccc3ncnc(Nc4cccc(Br)c4)c3c2)CCCCC1.[Br-] [Compound 23, 1-((2E)-4-{[4-(3-bromoanilino)-6-quinazolinyl]amino}-4-oxo-2-butenyl)-1-[(1-methyl-4-nitro-1H-imidazol-5-yl)methyl]piperidinium bromide]
SKBR3 Deact. [1]: 56 fold | SKBR3 HCR [1]: 36.1 fold | SW620 Deact. [2]: 27 fold | SW620 HCR [2]: 7.3 fold | kfrag. (fragmentation rate constant upon 1-electron reduction) [6]: 420 ± 60 s⁻¹ | A431 Deact. (fold reduction in oxic growth inhibition relative to parent kinase inhibitor) ([3]; Table 3): 65 fold | A431 HCR (Hypoxic Cytotoxicity Ratio) ([3]; Table 3): 26.9 fold

SMILES: Cn1cnc([N+](=O)[O-])c1C[N+](C)(C)C/C=C/C(=O)Nc1cc2c(Nc3ccc(F)c(C(F)(F)F)c3)ncnc2cn1 [Compound 50, (2E)-4-({4-[4-fluoro-3-(trifluoromethyl)anilino]pyrido[3,4-d]pyrimidin-6-yl}amino)-N,N-dimethyl-N-[(1-methyl-4-nitro-1H-imidazol-5-yl)methyl]-4-oxo-2-buten-1-ammonium bromide]
IC50 [8, 21]: 120000 nM | IC50 [8, 22]: 3780 nM | H1975 Deact. ([8]; Table 9): 70 fold | H1975 HCR ([8]; Table 9): 43.5 fold | IC50 [9, 23]: 125000 nM | IC50 [9, 24]: 4780 nM | SKOV3 Deact. [9]: 126 fold | SKOV3 HCR [9]: 28.7 fold | tumour growth inhibition (TGI) [10]: 114% | solubility ([11]; aqueous buffer): 72 µM | solubility ([11]; water): > 1300 µM | Stability PBS (percentage parent remaining) [12]: 88% | Stability Water (percentage parent remaining) [12]: 99% | Stability α-MEM + FCS (5%) (percentage parent remaining) [12]: 64% | IC50 [3, 25]: 250 nM | IC50 [3, 19]: 15300 nM | A431 Deact. ([3]; Table 9): 64 fold | A431 HCR ([3]; Table 9): 65.8 fold | IC50 [7]: 969 nM | Deact. erbB1 (fold reduction in cellular inhibition relative to the parent kinase inhibitor) ([7]; Table 8, A431 cells): 121 fold

IC50 [8, 26]: 216000 nM | IC50 [8, 27]: > 100000 nM | IC50 [13, 28]: 154000 nM | IC50 [13, 29]: 119000 nM | Detection of MNA (methyl nitroaromatic) [14]: No | % Loss of prodrug [14]: 8% | E (1)/V (one-electron reduction potential) [6]: −0.471 V | melting point: 252 °C (dec.) | IC50 [3, 25]: > 100000 nM | IC50 [3, 19]: 555000 nM
SMILES: Cn1cnc([N+](=O)[O-])c1C[n+]1ccc(Nc2ncc3cc(-c4c(Cl)cccc4Cl)c(=O)n(C)c3n2)cc1.[Br-] [Compound 142, 4-{[6-(2,6-dichlorophenyl)-8-methyl-7-oxo-7,8-dihydropyrido[2,3-d]pyrimidin-2-yl]amino}-1-[(1-methyl-4-nitro-1H-imidazol-5-yl)methyl]pyridinium bromide]
H1975 HCR ([8]; Table 7): <3 fold | HT29 HCR [13]: 1 fold | release of effector following 1-electron reduction [14]: did not release their respective effector compounds | A431 HCR ([3]; Table 7): <6 fold

IC50 [8, 26]: 17900 nM | IC50 [8, 27]: 2000 nM | IC50 [13, 28]: 7800 nM | IC50 [13, 29]: 1500 nM | Detection of MNA (methyl nitroaromatic) [14]: Yes | % Loss of prodrug [14]: 69% | E (1)/V (one-electron reduction potential) [6]: −0.465 V | melting point: 176 to 178 °C | IC50 [3, 25]: 1000 nM | IC50 [3, 19]: 42800 nM
SMILES: Cn1cnc([N+](=O)[O-])c1C[N+]1(CCOc2ccc(Nc3ncc4cc(-c5c(Cl)cccc5Cl)c(=O)n(C)c4n3)cc2)CCCCC1.[Br-] [Compound 143, 1-[2-(4-{[6-(2,6-dichlorophenyl)-8-methyl-7-oxo-7,8-dihydropyrido[2,3-d]pyrimidin-2-yl]amino}phenoxy)ethyl]-1-[(1-methyl-4-nitro-1H-imidazol-5-yl)methyl]piperidinium bromide]
H1975 HCR ([8]; Table 7): 9 fold | HT29 HCR [13]: 5 fold | release of effector following 1-electron reduction [14]: released their respective effector compounds | kfrag. (fragmentation rate constant upon 1-electron reduction) [6]: 170 ± 20 s⁻¹ | A431 HCR ([3]; Table 7): 43 fold

IC50 [8, 21]: 1150 nM | IC50 [8, 22]: 1120 nM | IC50 [9, 23]: 550 nM | IC50 [9, 24]: 740 nM | melting point: 163 to 166 °C | IC50 [3, 25]: 17 nM | IC50 [3, 19]: 27 nM | IC50 [7]: 8 nM
SMILES: C#Cc1cccc(Nc2ncnc3cnc(NC(=O)/C=C/CN(C)C)cc23)c1 [Compound 171, (2E)-4-(dimethylamino)-N-[4-(3-ethynylanilino)pyrido[3,4-d]pyrimidin-6-yl]-2-butenamide]
H1975 HCR ([8]; Table 9): 1.1 fold | SKOV3 HCR [9]: 0.8 fold | A431 HCR ([3]; Table 9): 1.7 fold
